For 18 compounds, inhibition, IC50 and Imax results are on record in ChEMBL document CHEMBL1151776, “Identification of aquaporin 4 inhibitors using in vitro and in silico methods” (Bioorg Med Chem, 2009).

Assay type in all cases: cell-based
The subject of assay [1] is Oocyte. The experiment in a line: Inhibition of human aquaporin 4 M23 isoform expressed in Xenopus laevis oocytes at 20 uM.
Assay [2] can be described thus: (§1) Inhibition of human aquaporin 4 M23 isoform expressed in Xenopus laevis oocytes. The note with it: oocyte.
In assay [3] the test system is Oocyte. The description is as §1.

pIC50: −log10 of the molar value.

A word on the inhibition: it is the percentage by which the read-out fell short of the control. Low values mean little suppression, high ones strong suppression. `CCCC(C)C1(CC)C(=O)NC(=O)NC1=O` (centres undefined) yielded an inhibition in the assay with Oocyte [1] of 9%.

In the assay on Oocyte [1], `Oc1cnc(Nc2nc3ccccc3o2)[nH]1` came in with an inhibition of 44%.

For the compound `OCC(O)COCc1ccccc1` (centres undefined), the inhibition in the assay with Oocyte [1] was found to be 11%.

On to `NS(=O)(=O)c1cc(Cl)sc1Cl`, for which the inhibition in the assay with Oocyte [1] came out at 11%.

Compound `CN1CCc2cccc3c2[C@H]1Cc1ccc(O)c(O)c1-3` gave an inhibition in the assay with Oocyte [1] of 40%.

In the assay with Oocyte [1], `CC(C)NC[C@H](O)COc1cccc2ccccc12` came in with an inhibition of 26%.

Take `O=C(Nc1nccs1)c1cccnc1`: in the assay with Oocyte [1], the inhibition amounted to 30%.

`O=C(Nc1ccccc1)c1cccnc1` showed an inhibition in the assay with Oocyte [1] of 26%.

`O=S(=O)(Cc1ccccc1)Nc1nccs1` showed an inhibition in the assay on Oocyte [1] of 45%.

A word on the pIC50: it is −log10 of the IC50, conventionally taken in molar units. Take `O=C(Nc1nncs1)c1cccnc1`: the pIC50 in assay [2] was 5.51. Also, in the assay on Oocyte [3], the Imax amounted to 73%. The compound also returned an inhibition in the assay on Oocyte [1] of 67%.

On to `COc1ccccc1OCC(O)CO` (centres undefined), for which, in the assay with Oocyte [1], the inhibition is 34%.

`N[C@@H]1CONC1=O`: the inhibition in the assay with Oocyte [1] was 3%.

Take `NS(=O)(=O)c1ccc(Cl)s1`: in the assay with Oocyte [1], the inhibition stood at 18%.

In assay [2], `CNS(=O)(=O)Cc1ccc2[nH]cc(CCN(C)C)c2c1` [SUMATRIPTAN] had a pIC50 of 4.96. The Imax in the assay on Oocyte [3] amounted to 52%. In addition, the inhibition in the assay with Oocyte [1] was found to be 54%.

The compound `NC(=O)NCCC[C@H](N)C(=O)O` came in with an inhibition in the assay on Oocyte [1] of 0%.

On to `NC(=O)c1nc[nH]c1C(N)=O`, for which the inhibition with Oocyte [1] turned out to be 23%.

Regarding `CC/C(=C(\c1ccccc1)c1ccc(OCCN(C)C)cc1)c1ccccc1`, the inhibition in the assay with Oocyte [1] worked out at 71%.

`CN(C)CCc1c[nH]c2ccc(Cn3cncn3)cc12` [RIZATRIPTAN]: the pIC50 in assay [2] was 5.54. Moreover, the Imax with Oocyte [3] is 54%. In addition, in the assay with Oocyte [1], the inhibition is 52%.
